Laboratory results reported in patent US11160788B2, “Caspase-1 inhibition and uses thereof for prevention and treatment of neurological conditions” (priority 2016, dated 2021).

Assays:
[1] = molecular target: T1, recombinant human Casp1 (Homo sapiens, UniProt P29466); assay: Caspase inhibition IC50, recombinant human Casp1; assay type: biochemical; details: read-out: IC50 against human Casp1
T1 sequence (P29466 120-297 limits assumed): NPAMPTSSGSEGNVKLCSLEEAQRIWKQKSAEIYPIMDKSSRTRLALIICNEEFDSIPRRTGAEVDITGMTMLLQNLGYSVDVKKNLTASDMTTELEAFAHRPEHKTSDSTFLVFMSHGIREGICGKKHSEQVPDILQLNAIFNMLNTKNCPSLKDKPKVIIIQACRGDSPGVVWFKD
T1 sequence (P29466 317-404 limits assumed): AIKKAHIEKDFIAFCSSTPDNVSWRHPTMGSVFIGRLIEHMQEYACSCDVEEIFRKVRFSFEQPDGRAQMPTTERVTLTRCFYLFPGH
Protocol: (§1) FIG. 14: Selectivity and blood brain permeability of VX-765 and VRT-043198. (a-b) IC50 of VX-765 (a) and VRT-043198 (b) against human Casp1-10. (c-d) IC50 of VX-765 (c) and VRT-043198 (d) against mouse Casp1 and Casp11. (e) Blood brain barrier permeability and presence of VX-765 and VRT-043198 in 3 wild type and 4 J20 mice brain cortex and hippocampus and in plasma. Ratios of brain levels to plasma levels are calculated.

[2] = molecular target: T2, mouse recombinant Casp1 (Mus musculus, UniProt P29452); assay: Caspase inhibition IC50, mouse recombinant Casp1; assay type: biochemical; details: read-out: IC50 against mouse Casp1
T2 sequence (P29452 119-296 limits assumed): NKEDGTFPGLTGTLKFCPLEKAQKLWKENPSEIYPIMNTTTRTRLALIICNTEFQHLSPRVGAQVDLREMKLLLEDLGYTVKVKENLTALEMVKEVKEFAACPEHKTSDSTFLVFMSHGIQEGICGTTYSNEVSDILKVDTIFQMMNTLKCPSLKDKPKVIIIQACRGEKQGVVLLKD
T2 sequence (P29452 315-402 limits assumed): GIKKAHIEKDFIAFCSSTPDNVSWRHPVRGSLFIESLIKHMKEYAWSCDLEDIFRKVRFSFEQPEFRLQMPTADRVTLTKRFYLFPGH
Protocol: as §1

[3] = tested on: serum deprived human primary neurons; assay: Neuritic beading in serum-deprived human primary neurons; assay type: cell-based; details: reversal treatment 48 hrs after serum deprivation
Protocol: (§2) FIG. 13: VX-765 protects CNS primary human neurons (HPN) against APP- or serum deprivation-mediated neuritic beading. (a) MTT assay with increasing dose of VX-765. (b) Fluorescent micrographs showing homogeneous distribution of EGFP in normal neurons and neuritic beading in APP-transfected neurons. (c) Percentage beading in APP-transfected or serum-deprived neurons treated 1 h before and continuously with stressor (Pre-treatment) or 48 h after stressor (post-beading treatment) with 25 or 50 μM VX-765 or with 5 μM Z-YVAD-fmk Casp1 peptide inhibitor. […] (d-e) HPN secreted or cellular Aβ42/total Aβ38+40+42 (d) (F(3,4)=12.73, p=0.0163, ANOVA, Dunnett's post-hoc compared to Serum+DMSO, *p<0.05), and (e) levels of secreted II-1β, IFN-γ, TNF-α, and II-6 from untreated (+S), serum deprived (−S), or serum-deprived human neurons treated with 25 or 50 μM VX-765.
(§3) EGFP-labeled human primary neurons were either APP^WT transfected or serum deprived. Two treatment strategies were employed to determine VX-765's effects on neuronal degeneration: our Pre-Treatment strategy looked at whether VX-765 could block neuronal degeneration when administered 1 hr prior to APP^WT transfection or serum deprivation, while our Reversal Treatment strategy looked at whether VX-765 could reverse degenerative effects when administered 48 hrs after APP^WT transfection or serum deprivation. Neurons displaying beaded morphology were counted with live imaging and measured as a percentage of the total number of eGFP+ neurons from 24-72 hrs after treatment. The irreversible caspase-1 inhibitor YVAD-fmk was used as positive control in our experiments. Results were obtained from averaging counts for at least 100 eGFP+ neurons per experiment in three independent neuron preparations.

[4] = tested on: APP^WT-transfected human primary neurons; assay: Neuritic beading in APPWT-transfected human primary neurons; assay type: cell-based
Protocol: as §2, §3

Row | IC50 [1] [nM] | IC50 [2] [nM] | Molecule | neuritic beading [3] | neuritic beading ([4]; pre-treatment 1 h before and continued, VX-765 25 and 50 μM, Z-YVAD-fmk 5 μM, 48 and 72 h) | neuritic beading ([4]; reversal (post-beading) treatment 48 hrs after APP^WT transfection, listed as YVAD) | neuritic beading ([4]; reversal (post-beading) treatment 48 hrs after APP^WT transfection, listed as YVAD-fmk)
1 | 9.91 | 18 | CC(C)(C)[C@H](NC(=O)c1ccc(N)c(Cl)c1)C(=O)N1CCC[C@H]1C(=O)N[C@H]1CC(=O)OC1O (stereo partly drawn) [VRT-043198, (2S)-1-((S)-2-(4-amino-3-chlorobenzamido)-3,3-dimethylbutanoyl)-N-((3S)-2-hydroxy-5-oxotetrahydrofuran-3-yl)pyrrolidine-2-carboxamide] | – | – | – | –
2 | – | – | Z-YVAD-fmk | neither YVAD nor VX-765 were able to reverse neuritic beading | prevented neuritic beading | not able to reverse neuritic beading at any time-point | unable to reverse or prevent neuritic beading at any time-point
